This passage reports EC50 and Emax results from patent US20260258003A1, “SLACK-ACTIVATING COMPOUNDS AND THEIR MEDICAL USE” (Johann Wolfgang Goethe-Universität Frankfurt am Main, priority 2023, published 2026).

A word on the EC50: it is the concentration at which the effect is half-maximal. As a reminder, the Emax is the maximal effect, on the per cent scale that the assay sets.

Read-outs that look alike come from different tables or passages of the source.

The experiment concerns the target T1, human Slack (Homo sapiens, UniProt Q5JUK3).
T1 construct: host or cells: HEK293
T1 sequence (Q5JUK3 1-1230): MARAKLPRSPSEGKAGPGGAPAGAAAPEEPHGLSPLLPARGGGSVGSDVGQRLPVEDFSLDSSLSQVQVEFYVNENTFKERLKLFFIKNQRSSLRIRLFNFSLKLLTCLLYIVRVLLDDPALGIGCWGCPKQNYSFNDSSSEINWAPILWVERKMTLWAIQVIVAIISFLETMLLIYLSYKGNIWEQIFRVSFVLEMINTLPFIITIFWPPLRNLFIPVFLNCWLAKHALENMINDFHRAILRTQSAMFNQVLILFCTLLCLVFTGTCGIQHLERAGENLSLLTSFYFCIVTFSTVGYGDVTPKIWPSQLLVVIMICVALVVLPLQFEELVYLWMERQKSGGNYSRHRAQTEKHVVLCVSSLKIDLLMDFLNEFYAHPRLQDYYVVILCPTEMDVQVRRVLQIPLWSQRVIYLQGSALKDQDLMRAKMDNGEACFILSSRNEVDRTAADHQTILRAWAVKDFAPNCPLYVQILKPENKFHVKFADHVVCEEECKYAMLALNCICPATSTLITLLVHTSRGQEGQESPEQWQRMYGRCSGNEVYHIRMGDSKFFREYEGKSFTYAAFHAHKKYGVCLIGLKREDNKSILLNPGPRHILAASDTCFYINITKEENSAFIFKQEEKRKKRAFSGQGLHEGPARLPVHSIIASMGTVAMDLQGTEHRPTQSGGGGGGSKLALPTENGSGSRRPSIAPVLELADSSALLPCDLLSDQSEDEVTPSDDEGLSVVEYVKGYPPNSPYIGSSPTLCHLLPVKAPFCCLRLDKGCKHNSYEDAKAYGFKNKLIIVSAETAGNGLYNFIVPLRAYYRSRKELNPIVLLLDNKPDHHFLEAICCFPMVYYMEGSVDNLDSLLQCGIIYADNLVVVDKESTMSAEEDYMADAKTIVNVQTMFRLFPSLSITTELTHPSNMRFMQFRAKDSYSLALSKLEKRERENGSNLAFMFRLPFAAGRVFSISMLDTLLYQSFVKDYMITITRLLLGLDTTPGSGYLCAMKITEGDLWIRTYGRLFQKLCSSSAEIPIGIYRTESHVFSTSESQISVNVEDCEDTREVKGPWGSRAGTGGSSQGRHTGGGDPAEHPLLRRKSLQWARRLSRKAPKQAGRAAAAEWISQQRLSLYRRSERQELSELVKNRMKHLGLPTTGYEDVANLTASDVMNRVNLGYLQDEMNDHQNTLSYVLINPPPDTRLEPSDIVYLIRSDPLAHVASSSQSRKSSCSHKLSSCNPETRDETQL
The experiment is described as follows: FluxOR potassium ion channel assay in HEK-Slack cells. Type of experiment: cell-based. The following applies: Na+ free buffer with 2 mM Ca2+, 2 mM Mg2+, 0.03% DMSO; for Emax: read-out: FluxOR assay EMAX (% relative to Loxapine). As to the method:
For that purpose, cultured HEK293 cells stably expressing human Slack (herein referred to as HEK-Slack cells) were incubated with compounds in a Na^+ free buffer to prevent compound-independent Slack activation by monovalent cations^7,19.
In detail, in these experiments, the Slack-activating efficacy and potency of the novel compounds was determined using a commercial FluxOR™ Potassium Ion Channel Assay (Invitrogen). HEK293 cells stably expressing human Slack (herein referred to as HEK-Slack cells) were plated at a density of 50,000 cells per well of a poly-D-lysine coated (75 μg/mL, Sigma Aldrich) 96-well, black-walled microplate with clear bottom (Greiner Bio-One) in DMEM containing 10% FBS and 1% penicillin/streptomycin 24 hours prior to assaying.
On the experiment day, cells were loaded with FluxOR™ dye according to the manufacturer's protocol. A Na^+-free assay buffer containing 140 mM choline chloride, 5 mM KCl, 2 mM CaCl2), 2 mM MgSO4, 10 mM HEPES, 5.55 mM glucose, adjusted to pH 7.4 with KOH, was used. To reduce background fluorescence all assay components were complemented by 10% BackDrop™ Background Suppressor (Invitrogen). […]
After washing steps, cells were incubated with compounds for 30 min at 37° C. All compounds were prepared as a 33.3 mM DMSO stock and diluted at the experimental day to a final concentration of 100, 50, 25, 12.5, 6.25, and 3.125 μM in assay buffer containing […] DMSO. […] After stimulation with Tl2SO4 solution, the fluorescence was measured over 100 s (excitation 485 nm, emission 525 nm) using an Infinite M200 Microplate Reader (Tecan). Assays run in triplicate and the ratio to baseline fluorescence was calculated for all time points. Dose-response curves comprising six concentrations were performed in triplets using fluorescence/fluorescenceBaseline ratios at the 100th second.

The mark [1] stands for this setting: mean with 95% confidence interval, read-out: FluxOR assay EC50.
[2] abbreviates: mean with 95% confidence interval.

In the case of `O=C(O)COCCN1CCCN(C2=Nc3ccccc3Oc3ccc(C(F)(F)F)cc32)CC1` [Compound 9, 2-(2-(4-(2-(Trifluoromethyl)dibenzo[b,f][1,4]oxazepin-11-yl)-1,4-diazepan-1-yl)ethoxy) acetic acid], the EC50 under setting [1] amounted to 50.9 µM. Further, the Emax under setting [2] came to 186%.
On the same counts, the results for `O=C(O)COCCN1CCN(C2=Nc3ccccc3Oc3ccc(C(F)(F)F)cc32)CC1` [Compound 8, 2-(2-(4-(2-(Trifluoromethyl)dibenzo[b,f][1,4]oxazepin-11-yl)piperazin-1-yl)ethoxy) acetic acid] are 62.5 µM and 177%.
For `O=C(O)COCCN1CCN(C2=Nc3ccccc3Oc3ccc(Cl)cc32)CC1` [Compound 6, 2-(2-(4-(2-Chlorodibenzo[b,f][1,4]oxazepin-11-yl)piperazin-1-yl)ethoxy) acetic acid], in that order: 30.3 µM and 96.2%.
On the same counts, the results for `OCCN1CCN(C2=Nc3ccccc3Oc3ccc(Cl)cc32)CC1` [Compound 5, 2-(4-(2-Chlorodibenzo[b,f][1,4]oxazepin-11-yl)piperazin-1-yl) ethan-1-ol] are 26 µM and 223%.
Take `CN1CCN(C2=Nc3ccccc3Oc3ccc(Cl)cc32)CC1` [Loxapine, 2-chloro-11-(4-methylpiperazin-1-yl)dibenzo[b,f][1,4]oxazepine, reference compound]: the EC50 reads like this: (first preliminary experiments, read-out: EC50 value in the first preliminary experiments) 23.4 µM; under setting [1], 20.7 µM. Besides, the Emax under setting [2] amounted to 100%.
For the compound `CN1CCN(C2=Nc3ccccc3Oc3ccc(C(F)(F)F)cc32)CC1` [Compound 2, 11-(4-Methylpiperazin-1-yl)-2-(trifluoromethyl)dibenzo[b,f][1,4]oxazepine], under setting [1], the EC50 came out at 6.3 µM. Further, the Emax under setting [2] was 114%.
For `O=c1nc(CN2CCN(C3=Nc4ccccc4Oc4ccc(Cl)cc43)CC2)[nH][nH]1` [Compound 10, 5-((4-(2-Chlorodibenzo[b,f][1,4]oxazepin-11-yl)piperazin-1-yl)methyl)-1,2-dihydro-3H-1,2,4-triazol-3-one], in that order: 22.1 µM and 120%.
On to `CN1CCN(C2=Nc3cc(F)ccc3Oc3ccc(C(F)(F)F)cc32)CC1` [Compound 4, 8-Fluoro-11-(4-methylpiperazin-1-yl)-2-(trifluoromethyl)dibenzo[b,f][1,4]oxazepine], for which, under setting [1], the EC50 amounted to 41.5 µM. The maximum response (Emax) under setting [2] amounted to 199%.
On the same counts, the results for `CN1CCCN(C2=Nc3ccccc3Oc3ccc(C(F)(F)F)cc32)CC1` [Compound 3, 11-(4-Methyl-1,4-diazepan-1-yl)-2-(trifluoromethyl)dibenzo[b,f][1,4]oxazepine] are 3.2 µM and 63.1%.
With `OCCOCCN1CCN(C2=Nc3ccccc3Sc3ccc(Cl)cc32)CC1` [Compound 7, 2-(2-(4-(2-Chlorodibenzo[b,f][1,4]thiazepin-11-yl)piperazin-1-yl)ethoxy) ethan-1-ol], under setting [1], the EC50 stood at 30 µM. For the same compound, the Emax under setting [2] stood at 87.4%.
